The target in this experiment is Aurora kinase-1 (TbAUK1) (Trypanosoma brucei, UniProt Q384J7). The experiment can be described thus: in vitro kinase assay of immunoprecipitated kinase. Format: biochemical.

Consider `CCS(=O)(=O)Nc1ccc2c(c1)/C(=C(/Nc1ccc(CN3CCCCC3)cc1)c1ccccc1)C(=O)N2` [Hesperadin], for which the IC50 was 40 nM.

These data come from paper PMC2697958 (Molecular microbiology, 2009).
